Reference: patent US9566265B2, “Carbazole compounds and therapeutic uses of the compounds” (Incuron, LLC, priority 2008, dated 2017)
≈ marks a conversion by molar mass, not a printed value. Where two headings read alike, the source gives them in different places.

Legend:
[1] = test system: human HT-29 colon adenocarcinoma xenografts
Description: In this study, the antitumor effect and toxicity of the three carbazoles against HCT-8 and HT29 colon cancer tumors were compared with treatment beginning when the tumor size reached 150-200 mg (about 7 days after tumor transplantation).
Eight to twelve-week-old female athymic nude mice (nu/nu, body weight 22-25 g) were obtained from Harlan Sprague Dawley Inc. (Indianapolis, Ind.) and maintained at five mice/cage with water and food ad libitum according to an institutionally approved animal protocol.
Human ileocecal adenocarcinoma HCT-8 and colon adenocarcinoma HT-29 xenografts were used. The xenografts were initially established by injecting s.c 10^6 cultured cells and tumors were passed several generations by transplanting about 50 mg non-necrotic tumor (2-3 pieces) via a trocar from the passage tumors when the tumors reach to 1-1.5 g.
Treatment was initiated 7 days after tumor transplantation when the tumors reached 150-200 mg. The mice in the control group received the vehicle (0.2% hydroxypropylmethylcellulose) at 200 μl per 20 g mouse body weight (same as the treatment groups). Five mice were used for each experimental group with 10 tumors (1 tumor each in the left and right side flanks).
Two axes (mm) of tumor (L, longest axis; W, shortest axis) were measured with the aid of a Vernier caliper. Tumor weight (mg) was estimated using a formula: tumor weight=½ (L×W2). Tumor measurements were taken daily at the same time as drug treatment and 3-4 times a week of post therapy.
The kinetics of drug-induced toxicities (body weight loss, diarrhea, and lethality) were determined daily for the first 10 days after treatment and every two days thereafter.
Antitumor activity was assessed by maximum tumor growth inhibition (MTRI) which is the mean tumor weight of treated group (MTWTG) compared with untreated control group (MTWCG) at the same time point (MTRI=MTWTG−MTWCG)÷MTWCG×100%). The tumor doubling time (TDT) was defined as the mean time for the tumor to reach twice its initial weight. Tumor response was expressed as partial tumor response (PR) when tumor weight was reduced at least 50% of the initial tumor size and complete tumor response (CR) was defined as the inability to detect tumor upon palpation at the initial site of tumor appearance.

[2] = test system: C. rugosa; experiment: in vitro susceptibility CLSI M27A3, MIC; assay type: cell-based; conditions: Diutina rugosa, strain M83, WT, Susceptible
From the text: (§1) Other Candida spp. and genera: 1 C. rugosa (M83), 1 C. lipolytica (M159), C. lusitaniae (200450), 1 Cryptococcus neoformans (499), and 1 Debaryomyces hansenii.

[3] = test system: C. lipolytica; experiment: in vitro susceptibility CLSI M27A3, MIC; assay type: cell-based; conditions: Yarrowia lipolytica, strain M159, WT, Susceptible
From the text: as §1

[4] = test system: Debaryomyces hansenii; experiment: in vitro susceptibility CLSI M27A3, MIC; assay type: cell-based; conditions: strain 20124, WT, Susceptible
From the text: as §1

[5] = test system: C. lusitaniae; experiment: in vitro susceptibility CLSI M27A3, MIC; assay type: cell-based; conditions: Clavispora lusitaniae, strain 200450, WT, Susceptible
From the text: as §1

[6] = test system: Cryptococcus neoformans; experiment: in vitro susceptibility CLSI M27A3, MIC; assay type: cell-based; conditions: strain 499, WT, Susceptible
From the text: as §1

[7] = test system: Bacillus subtilis; experiment: antibacterial cytotoxicity assay, gram(+) bacteria (OD600); assay type: cell-based; conditions: B. subtilis, 48 hours, over a range of potencies; FIG. 13B
Description: In vitro test to evaluate the effect of carbazole compounds on gram(-) and gram(+) bacteria. Two days prior to the start of the cytotoxicity assay, inoculate DH5-α and B. subtilis into 1 ml of corresponding media from glycerol stocks. Allow to grow during the course of the day at 37° C. with shaking. Streak each bacteria on the appropriate agar plates using a sterile inoculation loop and allow to grow overnight at 37° C. in the bacteria incubator. Using a sterile inoculation loop, pick a single colony of bacteria and inoculate 5 ml of the corresponding media in a 14 ml snap cap tube. Grow overnight ( 16 h) at 37° C. with shaking. […] Dilute 5 ml cultures of DH5-α and B. subtilis to an OD600 nm of 0.002, which corresponds to about 2×10^6 cells/ml in a volume sufficient for the experiment (dependent on the number of plates). Plate out 50 μl into each well of X 96-well plates (X=# plates needed for a given experiment). […] Chemicals for testing are prepared by dilution of stock solutions in LB Broth or Nutrient Broth for DH5-α and B. subtilis studies, respectively. Cells are treated with the final chemical concentrations presented in the scheme below (Table 2). Stock solutions are made up in DMSO. […] However, this concentration is dependent on the solubility of a given chemical and actual stock concentrations must be noted at time of experiment. Each library chemical to be tested requires 2 rows of a 96-well plate, thus 4 chemicals ([…]) can be tested in one plate simultaneously. In addition to test chemicals, each plate should include positive and negative controls. As positive control, ampicillin is used at 100 μg/ml. […] Dilutions of chemicals to be added to the plate are made up as 2× concentrations in appropriate bacteria media and added to corresponding wells in a volume of 50 μl. […] This process is repeated until all 10 2× doses are prepared. […] Following the addition of carbazole compounds to 96-well plates containing bacteria, plates are transferred to the 37° C. bacteria incubator for 48 hours. After the incubation, the OD600 mm for each well of the 96-well plates will be measured. […] The % DMSO control is plotted vs compound concentration to generate sigmoid shaped curves. After three runs are complete, the raw data for all three runs is used for IC50 calculations.

SMILES: CCN(CC)CCn1c2ccc3c(c2c2c4c(ccc21)C(=O)CC4)CCC3=O [Example 15]
- delay of tumor growth (control double time 7.8 days) [1]: 76%
- inhibitory rate / tumor growth inhibition [1]: 58%
- Antitumor Activity MTGI (%) ([1]; p.o. at MTD, 5 days on/2 days off per week, Example 15 5, Example 7 30, Example 13 25 mg/kg/d): 58.4 ± 6.4%
- Toxicity (%) lethality ([1]; same): 40%
- CR (%) ([1]; same, complete tumor response): 0%
- Toxicity (%) MWL ([1]; same, maximum weight loss of pretreatment body weight): 17.9 ± 6.8%
- PR (%) ([1]; same, partial tumor response): 0%
- Antitumor Activity TDT ([1]; same, tumor doubling time): 13.1 ± 2.3 days
- MIC ([2]; read-out: MIC* (24 hs)): 0.16 µM (≈ 0.0599 µg/mL)
- MIC ([2]; read-out: MIC* (48 hs)): 0.66 µM (≈ 0.247 µg/mL)
- MIC ([3]; read-out: MIC* (24 hs)): 0.02 µM (≈ 0.00749 µg/mL)
- MIC ([3]; read-out: MIC* (48 hs)): 0.08 µM (≈ 0.03 µg/mL)
- MIC ([4]; read-out: MIC* (24 hs)): 0.16 µM (≈ 0.0599 µg/mL)
- MIC ([4]; read-out: MIC* (48 hs)): 0.16 µM (≈ 0.0599 µg/mL)
- MIC ([5]; read-out: MIC* (24 hs)): 0.04 µM (≈ 0.015 µg/mL)
- MIC ([5]; read-out: MIC* (48 hs)): 0.16 µM (≈ 0.0599 µg/mL)
- MIC ([6]; read-out: MIC* (24 hs)): 0.02 µM (≈ 0.00749 µg/mL)
- MIC ([6]; read-out: MIC* (48 hs)): 0.08 µM (≈ 0.03 µg/mL)
- antibacterial effect [7]: antibacterial effect
